Experimental data as given in patent US20230285402A1, “Compositions and Methods of Modulating Short-Chain Dehydrogenase Activity” (BOARD OF REGENTS OF THE UNIVERSITY OF TEXAS SYSTEM, priority 2013, published 2023).

Experiments:
[1] = target: T1, recombinant 15-PGDH (Homo sapiens (Human), UniProt P15428); test: Inhibition of enzymatic activity of recombinant 15-PGDH in vitro (NADH generation); format: biochemical
[2] = target: T1, recombinant 15-PGDH; test: Melting temperature shift of recombinant 15-PGDH (SYPRO Orange); format: binding; settings: Differential Scanning Fluorimetry; shifted from 50.5
[3] = system: 15-PGH-luciferase fusion protein reporter in the Vaco-9M (V9M) cell line; test: 15-PGDH-luciferase fusion reporter induction in V9M cells; format: cell-based
Protocol: Some residual activity is seen for isomer B when added at 3.2 μM concentration. The small residual activity of isomer A may be due to possible 3% contamination with some residual isomer B.

[4] = system: PGE2 in colon, bone marrow, liver, lung; test: PGE2 in mouse tissues after IP injection; format: in vivo
Protocol: Shown is measurement by Elisa of PGE2 (ng PGE2/mg of tissue protein) from 4 mouse tissues: lung, liver, colon and bone marrow. […] Tissues were harvested for PGE2 assay at either 2 hour (2 h) or 3 hour (3 h) time points following drug injection.

[5] = system: mice; test: Homing of CFSE labeled donor bone marrow cells in lethally irradiated mice; format: in vivo, mouse; settings: 10 mg/kg body weight
Protocol: Drugs are administered following radiation, following the transplant, and again at 8 hours after the transplant.

[6] = Chemical stability in aqueous solutions; format: physicochemical; settings: broad pH range
[7] = Stability with mouse liver extracts; format: in vitro ADME
[8] = Stability with rat liver extracts; format: in vitro ADME
[9] = Stability with human liver extracts; format: in vitro ADME
[10] = system: mice; test: Immediate toxicity after IP injection into mice; format: in vivo; settings: over 24 hours; 50 mg/kg body weight IP

T1 sequence (P15428 whole entry): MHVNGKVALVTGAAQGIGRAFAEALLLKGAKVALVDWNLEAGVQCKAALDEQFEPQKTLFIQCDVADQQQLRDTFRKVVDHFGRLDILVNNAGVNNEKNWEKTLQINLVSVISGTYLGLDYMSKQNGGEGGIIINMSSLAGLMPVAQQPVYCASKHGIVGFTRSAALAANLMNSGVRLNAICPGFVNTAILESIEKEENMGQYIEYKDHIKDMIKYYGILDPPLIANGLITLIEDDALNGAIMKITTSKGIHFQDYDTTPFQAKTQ

## CCCC[S@](C)(O)c1sc2nc(-c3cccs3)cc(-c3ccccc3)c2c1N [SW033291 isomer B]
[1]; vs racemic SW033291
  IC50 lower than the parent racemic mixture: 40%
[2]
  melting temperature: 68 °C
[3]
  concentration for full activity: 0.1 µM

## CCCC[S+]([O-])c1sc2nc(-c3nccs3)cc(-c3cnc(C)n3C)c2c1N (stereo not drawn) [formula (XIII)]
[1]; enzyme concentration approximately 6 nM
  concentration that inhibits recombinant 15-PGDH: 3 nM
[4]; IP dose of 10 mg/kg body weight
  PGE2 levels in the colon, lung, liver and bone marrow: elevates PGE2 levels
[5]
  homing of hematopoietic stem cells following bone marrow transplantation: increases homing
[6]
  chemical stability in aqueous solutions: chemically stable
[7]
  stability when incubated with liver extracts: chemically stable
[8]
  stability when incubated with liver extracts: chemically stable
[9]
  stability when incubated with liver extracts: chemically stable
[10]
  immediate toxicity: no immediate toxicity

## (+) SW209415
[4]; after IP injection
  time of peak PGE2: 3 h
